Assay results from patent publication US9556417B2, “Reprogramming of cells to a new fate” (The Scripps Research Institute, priority 2010, dated 2017).

Assays:
R1 ES cells [1] = assay: Serum-free monolayer cardiac differentiation of ES cells, beating colonies; format: cell-based, mouse; conditions: for cardiac differentiation / percentage of beating colonies: early treatment window; for number of beating colonies: treatment days 5 through 7
Description: Having identified the first serum-free monolayer condition for cardiac differentiation of ES cells, we sought to test its efficacy as a platform to discover regulators of cardiomyogenesis. A collection of approximately 200 small molecules and growth factors reported to be influential in developmental processes were assembled. R1 ES cells were grown and plated for differentiation on Matrigel in 24-well plates using the media and growth factors described above. The screening collection was then added and removed from each well at specific time points in order to account for different developmental time windows. The collection was screened at days 0-2, 2-5, and 5-7.
(§1) Cells are plated at a density of 200,000 cells/well of a 6-well plate in 2.5 ml of ESGM. 6-well plates are coated overnight at 4° C. with 1 ml of Matrigel (BD Bioscience) diluted 50× from stock concentration. 24 hours after plating, or after sufficient colony size was achieved, cells are switched into chemically defined medium (CDM) and treated with 4 uM BIO (Calbiochem) and 20 ng/ml BMP-4 (R&D). CDM contains RPMI 1640, 0.5×N2, 1×B27 (without Vitamin A), 0.5× Glutamax, 0.55 mM beta-mercaptoethanol, 1× non-essential amino acids, 1× nucleosides. At Day 2, medium is changed, and again CDM containing 4 uM BIO with 20 ng/ml BMP-4 is added to the cells. At Day 5, cells are washed once with PBS and medium is changed to CDM containing 100 ng/ml Dkk-1 (R&D). At Day 7, medium is changed, and again CDM containing 100 ng/ml Dkk-1 is added to the cells. At Day 10, cells are trypsinized (0.05% trypsin) (Approximately 5 minutes at 37° C., or until cells begin to detach) and replated onto gelatin coated 6-well plates in CDM with no additional growth factors. By this time, the cells will have formed tight colonies that will be difficult to disrupt (Supplementary FIG. 2b). […] The trypsin is used primarily to detach the cells rather than to dissociate them to a single cell suspension. It is preferable for the colonies to remain intact. The trypsin is briefly quenched with MEF media, cells are centrifuged, and resuspended in CDM for plating. Medium is refreshed as needed to remove dead cells and debris (every 1 to 2 days).

R1 ES cells [2] = assay: QRT-PCR of markers in differentiating ES cells; format: cell-based, mouse; conditions: for expression of Brachyury T, Flk-1, GATA-4 and MESP1: treated day 0-2, harvested day 4.5; for expression of cardiac specific markers: treatment days 5-7, assessed at day 8
Description: To further analyze the mechanism of action of the cardiogenic effect seen with these molecules, QRT-PCR was carried out on cells treated from day 0-2 and harvested at day 4.5.
QRT-PCR was carried out to observe the induction of cardiomyogenesis at the transcript level. At day 5, when A83-01 treatment begins, the predominant state is that of a developed primitive streak type population that is yet to display robust expression of markers of cardiac precursors such as Nkx2.5, Isl-1, and c-kit.
Total RNA from each sample was prepared from 5×10^4 cells using RNeasy mini kit (Qiagen). Reverse transcription was carried out by using Reverse Transcription System (Promega) and PCR performed using PCR Super Mix (Invitrogen).

R1 mESCs = assay: Serum-free monolayer cardiac differentiation of ES cells, αMHC immunostaining at day 10; format: cell-based, mouse; conditions: for effect on cardiac specification (αMHC staining at day 10): factor given in single treatment windows; for cells staining for αMHC: treatment in the first window, day 10
Text: While cellular differentiation is a fluid process, its study can be simplified by defining stages of differentiation. In order to identify conditions conducive to cardiomyocyte differentiation, we employed a matrix strategy in which cells were differentiated for 10 days encompassing 4 treatment windows (followed by a period of maturation in the final procedure). The stages identified for the current study were mesendoderm, mesoderm, cardiac precursor, early cardiomyocyte, and mature cardiomyocyte. Shown in FIG. 24 is a schematic representing the transition from ES cells to cardiomyocytes, including markers for each cell type defined and the treatments used to stimulate each transition.
We began by identifying a minimal serum-free condition in which approximately 1% of cells would express αMHC (alpha-myosin heavy chain) after 10 days of culture. Combinations of medium components and plate coatings were tested in parallel, with the most permissive and consistent condition being a modified chemically defined N2/B27 medium on Matrigel coated plates (see Methods). Prior to differentiation, ES cells were maintained in a pluripotent state on MEFs and with LIF. At day −1, the cells were trypsinized and replated on Matrigel coated plates in LIF supplemented medium, allowing for better cell survival and more robust initial colony formation. In one day, a sufficient colony size is achieved allowing survival in serum-free medium (FIG. 25).
From a literature search, we identified growth factors, cytokines and small molecules reported to influence cardiac differentiation, such as activators and inhibitors of BMP, TGF-β/Nodal, Hedgehog, Wnt, and Notch pathways and tested each for their ability to induce cardiomyogenesis at each time window. For example, to test Dkk-1 in the second window, cells were in basal medium for days 0-2, treated with Dkk-1 for days 2-5, then cultured in basal medium until day 10 before immunofluorescence scoring. Positive regulators of cardiac specification at each stage were therefore identified by their ability to induce alpha-myosin heavy chain (αMHC) expression at day 10, as assessed by immunostaining.
as §1
Cells were fixed in 4% paraformaldehyde (Sigma) for 15 minutes, and stained in 0.3% Triton (Sigma) containing 5% donkey serum (Jackson ImunoResearch). Antibodies were used at dilutions of MF20 [Developmental Studies Hybridoma Bank (DSHB)] […]

[3] = test system: mouse embryonic fibroblasts (MEFs); assay: Direct cardiac reprogramming of fibroblasts, contracting patch/colony counts; format: cell-based
Text: Having successfully initiated the early cardiogenic program in MEFs, we next sought to induce robust activation of mid-stage cardiac gene expression and to ultimately generate spontaneously contracting patches of cardiac cells, a hallmark of terminal differentiation that is easily observed and quantified. To this end, we treated three-factor transduced MEFs with chemically defined media (CDM) as well as cytokines and small molecules that might enhance cardiogenesis by regulating TGFβ, bone morphogenetic protein (BMP), Hedgehog, Wnt, or Notch pathway activity. Treatments were done individually and in combination, and at different times during the reprogramming process. Despite the general unsuitability of the resulting protocol for iPSC generation, we also explored whether small-molecule inhibition of JAK-STAT (Janus kinase-signal transducer and activator of transcription), PI3K (phosphatidylinositol 3-kinase), or Wnt signalling during the early stages of the protocol might boost the effectiveness of cardiomyogenesis by preventing even a small number of iPSC intermediates from forming. Finally, we experimented with a more gradual transition between different media by lowering FBS concentration step-wise in increments of 1-4% over 3-6 days (immediately prior to switching to CDM). […] During this initial nine-day period, the small-molecule JAK inhibitor JD is continuously kept in the media at a concentration of 0.5 μM. From day nine onwards, the cells are cultured in CDM, with the cardioinductive growth factor BMP4 (Snyder, A. et al., J Cell Biochem 93, 224-32 (2004)) being added at 20 ng/ml for the first five days (FIG. 1b).
All MEFs (129S2/SvPasCrlf) were derived according to WiCell protocols (https://www.wicell.org/index.php?option=com_docman&task=doc_download&gid=687). TTFs were a kind gift of Dr. Hans Schöler. Secondary MEFs were derived as previously described (Wernig, M. et al., Nat Biotechnol 26, 916-24 (2008)). All results were initially obtained and confirmed with the Nebulette-LacZ MEFs; to ensure reproducibility and minimize inter-experimental variation, reported results almost exclusively derive from experiments utilizing secondary dox-inducible MEFs using the optimum induction period. MEFs were initially passaged on gelatin-coated (0.1% for 2 hours at 37° C.) tissue culture dishes in DMEM supplemented with 10% FBS, 2 mM Glutamax and 0.1 mM NEAA (all components from Invitrogen, Carlsbad, Calif.). Prior to viral transduction, cells were seeded onto Matrigel (BD Biosciences, Franklin Lakes, N.J.) or Geltrex (Invitrogen)-coated plates (1:40, overnight at 4° C.) at 3.5×10^4 cells per well of a six well plate (7×10^4 cells for TTFs) in the same media. […]

Molecule: C[C@H]1O[C@@H](n2cnc3c(N)ncnc32)C[C@@H]1OP(=O)(OCCSC(=O)C(C)(C)C)OCCSC(=O)C(C)(C)C [2′,5′-dd-3′-AMP-bis(t-Bu-SATE)]
- cardiac differentiation / percentage of beating colonies (R1 ES cells [1]): decrease in the percentage of beating clusters

Molecule: CCCC(=O)Nc1ncnc2c1ncn2[C@@H]1O[C@@H]2COP(=O)(O)O[C@H]2[C@H]1OC(=O)CCC [dibutyryl cAMP]
- expression of Brachyury T, Flk-1, GATA-4 and MESP1 (R1 ES cells [2]): increased
- cardiac differentiation / percentage of beating colonies (R1 ES cells [1]): increased the percentage of beating colonies

Molecule: O=C1Nc2cc(Br)ccc2/C1=C1/Nc2ccccc2/C1=N\O [BIO, 6-bromoindirubin-3′-oxime]
- effect on cardiac specification (αMHC staining at day 10) (R1 mESCs): increase the percentage of αMHC staining
- optimal dosage (R1 mESCs; first window (day 0-2)): 4 µM
- cells staining for αMHC (R1 mESCs): approximately 20%

Molecule: COC(=O)C1=C(C)NC(C)=C([N+](=O)[O-])C1c1ccccc1C(F)(F)F (centres unmarked) [BayK 8644]
- expression of Brachyury T, Flk-1, GATA-4 and MESP1 (R1 ES cells [2]): increased
- cardiac differentiation / percentage of beating colonies (R1 ES cells [1]): strong positive stimulator of cardiac differentiation

Molecule: Cc1cccc(-c2nn(C(=S)Nc3ccccc3)cc2-c2ccnc3ccccc23)n1 [A83-01, 3-(6-Methyl-2-pyridinyl)-N-phenyl-4-(4-quinolinyl)-1H-pyrazole-1-carbothioamide]
- expression of cardiac specific markers (R1 ES cells [2]): induced higher levels of expression
- number of beating colonies (R1 ES cells [1]): induced a higher number of beating colonies

B1: Activin A: a TGFβ/Activin/Nodal family member growth factor (protein, UniProt P08476 311-426, looked up)
Inhibin beta A chain: GLECDGKVNICCKKQFFVSFKDIGWNDWIIAPSGYHANYCEGECPSHIAGTSGSSLSFHSTVINHYRMRGHSPFANLKSCCVPTKLRPMSMLYYDDGQNIIKKDIQNMIVEECGCS
modifications: Inhibin beta A chain
- expression of cardiac specific markers (R1 ES cells [2]): opposite effect
- effect on cardiac specification (αMHC staining at day 10) (R1 mESCs): negative effects
- number of beating colonies (R1 ES cells [1]): lower number of beating colonies

B2: BMP4: cardioinductive growth factor, member of the TGF-β superfamily (protein, UniProt P12644 293-408, looked up)
Bone morphogenetic protein 4: SPKHHSQRARKKNKNCRRHSLYVDFSDVGWNDWIVAPPGYQAFYCHGDCPFPLADHLNSTNHAIVQTLVNSVNSSIPKACCVPTELSAISMLYLDEYDKVVLKNYQEMVVEGCGCR
- contracting patches per 100,000 MEFs plated (mean) ([3]; n=6, JI1 0.5 μM first nine days, BMP4 20 ng/ml five days): 149±13 patches per 100,000 MEFs plated
- increase in formation of contracting patches ([3]; three-factor transduced MEFs, BMP4 20 ng/ml for first five days in CDM): ~150 fold
- optimal concentration (R1 mESCs; first and/or second treatment windows): 20 ng/mL
- cells staining for αMHC (R1 mESCs): approximately 20%

B3: Wnt5a: Wnt-5A class, non-canonical Wnt signaling growth factor (protein, UniProt P41221 62-380, looked up)
Protein Wnt-5a: IIGAQPLCSQLAGLSQGQKKLCHLYQDHMQYIGEGAKTGIKECQYQFRHRRWNCSTVDNTSVFGRVMQIGSRETAFTYAVSAAGVVNAMSRACREGELSTCGCSRAARPKDLPRDWLWGGCGDNIDYGYRFAKEFVDARERERIHAKGSYESARILMNLHNNEAGRRTVYNLADVACKCHGVSGSCSLKTCWLQLADFRKVGDALKEKYDSAAAMRLNSRGKLVQVNSRFNSPTTQDLVYIDPSPDYCVRNESTGSLGTQGRLCNKTSEGMDGCELMCCGRGYDQFKTVQTERCHCKFHWCCYVKCKKCTEIVDQFVCK
- decrease in overall beating efficiency (R1 ES cells [1]; same stage as BayK 8644): 20%

B4: Dkk-1: Wnt inhibitor Dkk-1 (Dickkopf protein 1) (protein, UniProt O94907 32-266, looked up)
Dickkopf-related protein 1: TLNSVLNSNAIKNLPPPLGGAAGHPGSAVSAAPGILYPGGNKYQTIDNYQPYPCAEDEECGTDEYCASPTRGGDAGVQICLACRKRRKRCMRHAMCCPGNYCKNGICVSSDQNHFRGEIEETITESFGNDHSTLDGYSRRTTLSSKMYHTKGQEGSVCLRSSDCASGLCCARHFWSKICKPVLKEGQVCTKHRRKGSHGLEIFQRCYCGEGLSCRIQKDHHQASNSSRLHTCQRH
- increase in efficiency of cardiac differentiation (R1 mESCs; after BMP-4 and BIO for 5 days, treated in third or fourth window): 20%
- colonies developing a beating phenotype (R1 ES cells [1]; BMP-4 + BIO then Dkk-1, replated on gelatin, basal medium, after 6 days of culture): ~50%
